Assay results taken from patent publication US20140066365A1, “USE OF CALIXARENES ASSOCIATED WITH AN ANTIBIOTIC IN THE TREATMENT OF BACTERIAL INFECTIONS” (priority 2011, published 2014).
In brackets after ≈: the same amount, converted by molar mass. Where two headings read alike, the source gives them in different places.

Experiments:
Assay type in all cases: cell-based
[1] = test system: EcR3: ESBL-Producing Escherichia coli; assay: Antibiogram by the disk diffusion technique; conditions: for CA-SFM Interpretation: Cd CA-SFM 2011; for Results: Table C1, against Dmin Dmax
Method: The bacterial and antibiogramidentification is carried out by the VITEK 2 system (bioMerieux) and by the disk diffusion technique

[2] = test system: EcR1: Penicillinase-Producing Escherichia coli without Associated Resistance; assay: Antibiogram by the disk diffusion technique; conditions: for Results: EcR1, interpretation of the diameter against Dmin Dmax; for Results / Diameter: Table A1; for Diameter: EcR1, disk diffusion
Method: (§1) 5.1 EcR1: Penicillinase-Producing Escherichia coli without Associated Resistance The bacterial and antibiogramidentification is carried out by the VITEK 2 system (bioMérieux) and by the disk diffusion technique.

[3] = test system: SaR4: Meticillin-Resistant Staphylococcus aureus; assay: Antibiogram, MIC by the VITEK 2 system; conditions: SaR4; for MIC: Staphylococcus aureus, read-out: MIC
Method: (§2) The bacterial and antibiogramidentification is carried out by the VITEK 2 system (bioMérieux) and by the disk diffusion technique

[4] = test system: SaR1: Meticillin-Resistant Staphylococcus aureus without Associated Resistance; assay: Antibiogram, MIC by the VITEK 2 system; conditions: SaR1; for MIC mg/L: Table D2; for MIC: Staphylococcus aureus, read-out: MIC
Method: (§3) The bacterial and antibiogramidentification is carried out by the VITEK 2 system (bioMérieux)

[5] = test system: EcR1: Penicillinase-Producing Escherichia coli without Associated Resistance; assay: Antibiogram, MIC by the VITEK 2 system; conditions: for MIC: Escherichia coli
Method: as §1

[6] = test system: EcR2: Cephalosporinase-Hyperproducing Strain of Escherichia coli; assay: Antibiogram, MIC by the VITEK 1 system; conditions: for MIC: Escherichia coli, read-out: MIC
Method: The bacterial and antibiogramidentification is carried out by the VITEK 1 system (bioMérieux) and by the disk diffusion technique

[7] = test system: PaR5: Pseudomonas aeruginosa; assay: Antibiogram by the disk diffusion technique; conditions: for Diameter / Results: Table I1; for Results: against Dmin-Dmax
Method: as §2

[8] = test system: PaR3: Pseudomonas aeruginosa; assay: Antibiogram, MIC by the VITEK 2 system
Method: as §3

[9] = EcR1, Table A2, read-out: MIC mg/L (diameter in mm)
[10] = EcR1, VITEK 2, Table A1, read-out: MIC

`O=C(O)c1cn(C2CC2)c2cc(N3CCNCC3)c(F)cc2c1=O` [Ciprofloxacin] was tested, and the “CA-SFM Interpretation” value [1] was “Susceptible”, the Results [1] was “Susceptible” and the Results [2] was “Susceptible”.

`Cc1onc(-c2ccccc2)c1C(=O)N[C@@H]1C(=O)N2[C@@H]1SC(C)(C)[C@@H]2C(=O)O` [Oxacillin] was tested, and the Results ([3]; Table F1, MIC) was “Resistant”, the “CA-SFM Interpretation” value ([3]; from MIC, Cc CA-SFM 2011) was “Resistant” and the “CLSI Interpretation” value ([3]; from MIC, Cc CLSI 2011) was “Resistant”. For the same molecule, the “EUCAST Interpretation” value ([3]; from MIC, Cc EUCAST 2011) was “Resistant”, the MIC ([3]; Table F1) was ≥ 8 µg/mL and the MIC ([3]; Table F2, MIC) was ≥ 8 µg/mL. For the same molecule, the “CA-SFM Interpretation” value ([4]; Cc CA-SFM 2011) was “Resistant”, the “CLSI Interpretation” value ([4]; Cc CLSI 2011) was “Resistant” and the “EUCAST Interpretation” value ([4]; Cc EUCAST 2011) was “Resistant”. The Results ([4]; Table D1, from MIC) was “Resistant”, the “MIC mg/L” value [4] was “≧8 mg/L” and the MIC ([4]; Table D1) was ≥ 8 µg/mL.

In the case of `O=C1CN(/N=C/c2ccc([N+](=O)[O-])o2)C(=O)N1` [Nitrofurantoin], the MIC ([3]; Table F1) is reported as ≤ 25 µg/mL, the MIC ([3]; Table F2, MIC) is reported as ≤ 25 µg/mL and the MIC [5, 9] is reported as ≤ 16 mg/L. The MIC [5, 10] was ≤ 16 mg/L, the MIC ([6]; EcR2, VITEK 1, Table B1) was ≤ 25 µg/mL and the MIC ([6]; EcR2, Table B2, MIC) was ≤ 25 µg/mL. For the same molecule, the “MIC mg/L” value [4] was “≦16 mg/L” and the MIC ([4]; Table D1) was ≤ 16 µg/mL.

For `CCn1cc(C(=O)O)c(=O)c2cc(F)c(N3CCNCC3)cc21` [Norofloxacin], the Diameter ([7]; PaR5) was 17 mm and the Results ([7]; PaR5) was “Resistant”.

With `CC(=O)OCC1=C(C(=O)O)N2C(=O)[C@@H](NC(=O)Cc3cccs3)[C@H]2SC1` [C1G, Cefalotine] the “CA-SFM Interpretation” value [1] was “Resistant”, the “CLSI Interpretation” value ([1]; Cd CLSI 2011) was “Resistant” and the Diameter ([1]; Table C1) was 6 mm. The Results [1] was “Resistant”, the diameter in mm ([1]; Table C2) was 6 mm and the “CA-SFM Interpretation” value ([5]; EcR1, MIC against Cc CA-SFM 2011) was “Susceptible”. The “CLSI Interpretation” value ([5]; EcR1, MIC against Cc CLSI 2011) was “Susceptible”, the “EUCAST Interpretation” value ([5]; EcR1, MIC against Cc EUCAST 2011) was “Susceptible” and the Results ([5]; EcR1, interpretation of the MIC, Table A1) was “Susceptible”. For the same molecule, the MIC [5, 9] was 4 mg/L (≈ 10.1 µM), the MIC [5, 10] was 4 mg/L (≈ 10.1 µM) and the Results ([6]; EcR2, Table B1) was “Resistant”. For the same molecule, the “CA-SFM Interpretation” value ([6]; EcR2, from MIC, Cc CA-SFM 2011) was “Resistant”, the “CLSI Interpretation” value ([6]; EcR2, from MIC, Cc CLSI 2011) was “Resistant” and the “EUCAST Interpretation” value ([6]; EcR2, from MIC, Cc EUCAST 2011) was “Resistant”. For the same molecule, the MIC ([6]; EcR2, VITEK 1, Table B1) was ≥ 64 µg/mL, the MIC ([6]; EcR2, Table B2, MIC) was ≥ 64 µg/mL and the Diameter [2] was 17 mm. For the same molecule, the Results [2] was “Intermediate”.

With `CN(C)[C@@H]1C(O)=C(C(N)=O)C(=O)[C@@]2(O)C(O)=C3C(=O)c4c(O)cccc4[C@@](C)(O)[C@H]3C[C@@H]12` [Tetracycline] the MIC ([3]; Table F1) was ≤ 1 µg/mL and the MIC ([3]; Table F2, MIC) was ≤ 1 µg/mL.

In the case of `C[C@@H](O)[C@H]1C(=O)N2C(C(=O)O)=C(S[C@@H]3CN[C@H](C(=O)N(C)C)C3)[C@H](C)[C@H]12` [Meropenem], the Diameter ([7]; PaR5) is reported as 34 mm, the Results ([7]; PaR5) is reported as “Susceptible” and the diameter in mm ([7]; disk diffusion inhibition diameter, strain PaR5) is reported as 34 mm. The “CA-SFM Interpretation” value ([7]; disk diffusion, PaR5, versus critical diameter CA-SFM 2011) was “Susceptible”, the “CLSI Interpretation” value ([7]; disk diffusion, PaR5, versus critical diameter CLSI 2011) was “Susceptible” and the “EUCAST Interpretation” value ([7]; disk diffusion, PaR5, versus critical diameter EUCAST 2011, for ** antibiotics the disk load differs and the EUCAST interpretation is not applicable) was “Susceptible”. For the same molecule, the “CA-SFM Interpretation” value ([8]; Cc CA-SFM 2011) was “Resistant”, the “CLSI Interpretation” value ([8]; Cc CLSI 2011) was “Resistant” and the “EUCAST Interpretation” value ([8]; Cc EUCAST 2011) was “Resistant”. The MIC ([8]; Pseudomonas aeruginosa, Table H2, read-out: MIC) was ≥ 16 µg/mL, the MIC ([8]; Table H1) was “≧16” and the Results ([8]; Table H1) was “Resistant”.

With `CO/N=C(\C(=O)N[C@@H]1C(=O)N2C(C(=O)[O-])=C(C[N+]3(C)CCCC3)CS[C@H]12)c1csc(N)n1` [Cefepime] the “MIC mg/L (diameter in mm)” value ([2]; EcR1, cells that print a diameter, Table A2) was 27 mm, the “CA-SFM Interpretation” value ([2]; EcR1, diameter against CA-SFM 2011 limits) was “Susceptible” and the “CLSI Interpretation” value ([2]; EcR1, diameter against CLSI 2011 limits) was “Susceptible”. The “EUCAST Interpretation” value ([2]; EcR1, diameter against EUCAST 2011 limits) was “Susceptible”, the Diameter [2] was 27 mm and the Results [2] was “Susceptible”.
